Legend:
[1] = tested on: HCN4-GFP positive cells derived from H7 embryoid body (pacemaker cells); experiment: Patch clamp measurement of the beating rate (spontaneous excitation) of the pacemaker cells; assay type: cell-based, human; conditions: for effect on beating rate of the pacemaker cells (in words): drug added to perfusion solution, patch clamp
Experimental: Patch clamp: Cells which had been collected by cell sorting were seeded on gelatin-coated, 8-mm diameter cover slips (Warner Instruments) in a number of about 1,500 cells. On or after the next day, a patch clump method was used to observe the automaticity and to analyze functions of ion channels.
The quantification of electrical activities by a patch clump method and of contraction by video recording was carried out.
The quantification of electrical activities by a patch clump method was carried out.
It was ascertained that the beating rate of the pacemaker cells according to the present invention was increased by means of isoproterenol, a sympathetic stimulant, and decreased by means of carbachol, a parasympathetic stimulant. In these experiments, a patch clamp method was used to measure directly electrical phenomena (spontaneous excitation) from the pacemaker cells. To the perfusion solution were added isoproterenol, a sympathetic stimulant, which increased [sic], and then carbachol, a parasympathetic stimulant, to examine their effects.

[2] = tested on: heart of a rat with atrioventricular block; experiment: Intraperitoneal isoproterenol in rat with atrioventricular block implanted with pacemaker cells, electrocardiogram; assay type: in vivo; conditions: isoproterenol injected into the peritoneal cavity; AVB rat with implants; FIG. 19
Experimental: Male ICR rats of 10 weeks old were used. Rats were administered with a 0.2 ml injection of an anesthetic (0.2% pentobarbital, MiliQ). Breathing assistance was provided by a mechanical ventilator and electrocardiogram monitoring was performed. A thoracotomy was made using an electrosurgical knife and 15 μl of 30% glycerol was injected using a microsyringe, into a place where the pulmonary artery is attached to the heart. It was ascertained, from the electrocardiogram, whether AVE wave forms (decrease in the beating rate, independent P and QRS waves) appeared when the injection allowed the atrioventricular node to be damaged. If AVB wave forms were not identified, injection of glycerol was done again. Thirty minutes after AVB wave forms were identified, the chest was closed after AVB wave forms were identified on the electrocardiogram. The ventilator was removed from each of the rats, which were subjected to oxygen inhalation at 37° C. When recovered from anesthesia, the rats were returned back to their cages. Pacemaker cells which were GFP positive cells were selected and collected by cell sorting. The pacemaker cells were collected in conical tubes, and then centrifuged at 1,000 rpm for 5 minutes to form a cell pellet, which was then suspended in differentiation induction medium. […]

In the case of `C[N+](C)(C)CCOC(N)=O` [carbachol], the “beating rate in the presence of carbachol” value ([1]; carbachol in perfusion solution, after isoproterenol washout, before: 17 beats per 10 seconds, FIG. 16) is reported as 8 beats per 10 seconds, the “beating rate after washing out of carbachol” value ([1]; carbachol washed out, FIG. 16) is reported as 14 beats per 10 seconds and the “effect on beating rate of the pacemaker cells (in words)” value [1] is reported as “decreased”.
For `CC(C)NCC(O)c1ccc(O)c(O)c1` (stereo not shown) [isoproterenol], the “beating rate in the presence of isoproterenol” value ([1]; 10^−5 M isoproterenol in perfusion solution, before: 54 beats per 10 seconds, FIG. 16) was 61 beats per 10 seconds, the “effect on beating rate of the pacemaker cells (in words)” value [1] was “increased” and the “beating rate after washing out of isoproterenol” value ([1]; washout after 10^−5 M isoproterenol, FIG. 16) was 45 beats per 10 seconds. The “ventricular rhythm resulting from the implanted pacemaker cells after isoproterenol” value [2] was “accelerated (tachycardia)”.
